Source: patent US9765074B2, “Inhibitors of the renal outer medullary potassium channel” (Merck Sharp & Dohme Corp., priority 2013, dated 2017)

Molecular target: T1, hROMK (hKir1.1) (Homo sapiens, UniProt P48048)
T1 construct: expressed in transfected cells
T1 sequence (P48048 1-391): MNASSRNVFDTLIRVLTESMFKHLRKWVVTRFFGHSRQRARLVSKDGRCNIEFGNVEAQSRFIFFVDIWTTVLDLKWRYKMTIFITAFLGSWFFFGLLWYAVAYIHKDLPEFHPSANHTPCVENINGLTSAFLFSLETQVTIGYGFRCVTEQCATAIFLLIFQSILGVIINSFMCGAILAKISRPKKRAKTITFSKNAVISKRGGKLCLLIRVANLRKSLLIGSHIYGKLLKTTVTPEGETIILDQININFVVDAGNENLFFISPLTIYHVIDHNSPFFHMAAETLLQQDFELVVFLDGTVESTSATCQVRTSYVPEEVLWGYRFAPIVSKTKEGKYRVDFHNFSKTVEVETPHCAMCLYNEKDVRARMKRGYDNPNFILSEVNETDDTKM
Assay: Thallium Flux Assay (ROMK channel functional thallium flux, FLIPR-Tetra)
Assay type: cell-based
Settings: HEK293 cells stably expressing hROMK (hKir1.1); 30 min compound incubation
Description: The following Thallium Flux Assay was performed on each of the final product compounds in the Examples.
Cell Culture Conditions—HEK293 cells stably expressing hROMK (hKir1.1) were grown at 37° C. in a 10% CO2 humidified incubator in complete growth media: Dulbecco's Modified Eagle Medium supplemented with non-essential amino acids, Penicillin/Streptomycin/Glutamine, G418 and FBS. At >80% confluency, aspirate the media from the flask and rinse with 10 mL Calcium/Magnesium-free PBS. Add 5 mL of 1× trypsin (prepared in Ca/Mg Free PBS) to T-225 flask and return flask to 37° C./CO2 incubator for 2-3 minutes. To dislodge the cell, gently bang the side of the flask with your hand. Triturate the cells completely and then transfer the cells to 25 mL complete media. Centrifuge at 1,500 rpm for 6 min followed by resuspension in complete growth media and determine cell concentration. For typical re-seeding, 4E6 cells/T-225 flask will attain >80% confluency in 4 days. Under ideal growth conditions and appropriate tissue culture practices, this cell line is stable for 40-45 passages. FluxOR Kit Components (Invitrogen F10017) • FluxOR™ Reagent (Component A) • FluxOR™ Assay Buffer (Component B)—10× Concentrate • PowerLoad™ Concentrate (Component C)—100× Concentrate • Probenecid (Component D)—Lyophilized sample is kept at −20° C. Water soluble, 100× after solubilization in 1 mL water. Store at 4° C. • FluxOR™ Chloride-free Buffer (Component E)—5× Concentrate • Potassium sulfate (K2SO4) Concentrate (Component F)—125 mM in water. Store at 4° C. • Thallium sulfate (Tl2SO4) Concentrate (Component G)—50 mM in water. Store at 4° C. • DMSO (dimethyl sulfoxide, Component H)—1 mL (100%) Reagent Preparation: FluxOR Working Solutions • 1000× FluxOR™ Reagent: Reconstitute a vial of component A in 100 μl DMSO; Mix well; Store 10 μl aliquots at −20° C. • 1× FluxOR™ Assay Buffer: Dilute Component B 10-fold with water; Adjust pH to 7.4 with Hepes/NaOH; Filter and store at 4° C. • Probenecid/Assay Buffer: 100 mL of 1× FluxOR™ Assay Buffer; 1 mL of reconstituted component D; Store at 4° C. • Loading Buffer (per microplate): 10 μl 1000× FluxOR™ Reagent; 100 μl component C; 10 mL Probenecid/Assay Buffer • Compound Buffer (per microplate): 20 mL Probenecid/Assay Buffer; 0.3 mM ouabain (10 mM ouabain in water can be stored in amber bottle/aluminum foil at room temperature); Test compound • 1× FluxOR™ Chloride-Free Buffer: Prepare 1× working solution in water. Can be stored at room temperature • Stimulant Buffer (prepared at 5× final concentration in 1× FluxOR™ Chloride-Free Buffer): 7.5 mM Thallium sulfate and 0.75 mM Potassium sulfate (to give a final assay concentration of 3 mM Thallium/0.3 mM Potassium). Store at 4° C. when not in use. If kept sterile, this solution is good for months. Assay Protocol—The ROMK channel functional thallium flux assay is performed in 384 wells, using the FLIPR-Tetra instrument. HEK-hKir1.1 cells are seeded in Poly-D-Lysine microplates and kept in a 37° C.-10% CO2 incubator overnight. On the day of the experiment, the growth media is replaced with the FluxOR™ reagent loading buffer and incubated, protected from light, at ambient temperature (23-25° C.) for 90 min. The loading buffer is replaced with assay buffer±test compound followed by 30 min incubation at ambient temperature, where the Thallium/Potassium stimulant is added to the microplate. Step Protocol • 1. Seed HEK-hKir1.1 cells (50 μl at 20,000 cells/well) in 384-well PDL coated Microplates • 2. Allow cells to adhere overnight in humidified 37° C./10% CO2 incubator • 3. Completely remove cell growth media from microplate and replace with 25 μl loading buffer • 4. Incubate Microplate at room temperature, protected form light, for 90 min • 5. Remove loading buffer and replace with 25 μl 1× Assay Buffer±test compound. • 6. Incubate microplate at room temperature, protected from light, for 30 min • 7. At FLIPR-Tetra 384: Add stimulant (Thallium/Potassium) solution to microplate and monitor fluorescence. […]

IC50 [nM]	SMILES
30	CCC1CC2(CCN(C[C@H](O)c3cnc(-n4cnnn4)cn3)CC2)C(=O)N1C1=CC(=O)OC1 (mixture of isomers) [Example 221, 3-ethyl-8-{(2S)-2-hydroxy-2-[5-(1H-tetrazol-1-yl)pyrazin-2-yl]ethyl}-2-(5-oxo-2,5-dihydrofuran-3-yl)-2,8-diazaspiro[4.5]decan-1-one]
100	O=C1C=C(N2C(=O)C3(CCN(C[C@H](O)c4ccc(-n5cnnn5)cn4)CC3)CC2C2CC2)CO1 (mixture of isomers) [Example 222, 3-cyclopropyl-8-{(2S)-2-hydroxy-2-[5-(1H-tetrazol-1-yl)pyridin-2-yl]ethyl}-2-(5-oxo-2,5-dihydrofuran-3-yl)-2,8-diazaspiro[4.5]decan-1-one]
50	O=C1C=C(N2C(=O)C3(CCN(C[C@H](O)c4ccc(-n5cnnn5)cn4)CC3)CC2C2CC2)CO1 (mixture of isomers) [Example 223, 3-cyclopropyl-8-{(2S)-2-hydroxy-2-[5-(1H-tetrazol-1-yl)pyridin-2-yl]ethyl}-2-(5-oxo-2,5-dihydrofuran-3-yl)-2,8-diazaspiro[4.5]decan-1-one]
110	CC1=C(N2CC[C@]3(CCN(C[C@H](O)c4cnc(-n5cnnn5)cn4)CC3F)C2=O)COC1=O (mixture of isomers) [Example 224, 6-fluoro-8-{(2S)-2-hydroxy-2-[5-(1H-tetrazol-1-yl)pyrazin-2-yl]ethyl}-2-(4-methyl-5-oxo-2,5-dihydrofuran-3-yl)-1-oxo-2-aza-8-azoniaspiro[4.5]decane]
150	CC1=C(N2CC[C@@]3(CCN(C[C@H](O)c4cnc(-n5cnnn5)cn4)CC3F)C2=O)COC1=O (mixture of isomers) [Example 225, 6-fluoro-8-{(2S)-2-hydroxy-2-[5-(1H-tetrazol-1-yl)pyrazin-2-yl]ethyl}-2-(4-methyl-5-oxo-2,5-dihydrofuran-3-yl)-1-oxo-2-aza-8-azoniaspiro[4.5]decane]
330	CC1OC(=O)C=C1N1CCC2(CCN(C[C@H](O)c3ccc(-n4cnnn4)nc3)CC2)C1=O (mixture of isomers) [Example 226, 8-((R)-2-(6-(1H-tetrazol-1-yl)pyridin-3-yl)-2-hydroxyethyl)-2-(2-methyl-5-oxo-2,5-dihydrofuran-3-yl)-2,8-diazaspiro[4.5]decan-1-one]
180	CC1OC(=O)C=C1N1CCC2(CCN(C[C@H](O)c3ccc(-n4cnnn4)nc3)CC2)C1=O (mixture of isomers) [Example 227, 8-((R)-2-(6-(1H-tetrazol-1-yl)pyridin-3-yl)-2-hydroxyethyl)-2-(2-methyl-5-oxo-2,5-dihydrofuran-3-yl)-2,8-diazaspiro[4.5]decan-1-one]
30	CC1=C(N2C(=O)C3(CCN(CCc4ccc(-n5cnnn5)nn4)CC3)CC2C)COC1=O (racemic) [Example 240, 3-methyl-2-(4-methyl-5-oxo-2,5-dihydrofuran-3-yl)-1-oxo-8-{2-[6-(1H-tetrazol-1-yl)pyridazin-3-yl]ethyl}-2-aza-8-azoniaspiro[4.5]decane]
20	CC1=C(N2C(=O)C3(CCN(CCc4ccc(-n5cnnn5)nn4)CC3)CC2C)COC1=O (racemic) [Example 241, 3-methyl-2-(4-methyl-5-oxo-2,5-dihydrofuran-3-yl)-1-oxo-8-{2-[6-(1H-tetrazol-1-yl)pyridazin-3-yl]ethyl}-2-aza-8-azoniaspiro[4.5]decane]
50	O=C1C=C(N2CCC3(CCN(C[C@@H](O)c4ccc(-n5cnnn5)nc4)CC3)C2=O)CO1 (single isomer, unassigned) [Example 2]
40	CC1=C(N2C(=O)C3(CCN(C[C@@H](O)c4ccc(-n5cnnn5)nc4)CC3)CC2C)COC1=O (single isomer, unassigned) [Example 63]
50	CC1=C(N2C(=O)C3(CCN(C[C@@H](O)c4ccc(-n5cnnn5)nc4)CC3)CC2C)COC1=O (single isomer, unassigned) [Example 64]
10	CC1=C(N2C(=O)C3(CCN(C[C@H](O)c4ccc(-n5cnnn5)nc4)CC3)CC2C)COC1=O (single isomer, unassigned) [Example 65]
10	CC1=C(N2C(=O)C3(CCN(C[C@H](O)c4ccc(-n5cnnn5)nc4)CC3)CC2C)COC1=O (single isomer, unassigned) [Example 66]
170	CC1=C(N2C(=O)C3(CCN(C[C@H](O)c4cnc(-n5cnnn5)cn4)CC3)CC2C)COC1=O (single isomer, unassigned) [Example 67]
230	CC1=C(N2C(=O)C3(CCN(C[C@@H](O)c4cnc(-n5cnnn5)cn4)CC3)CC2C)COC1=O (single isomer, unassigned) [Example 68]

SMILES	IC50 [nM]
CC1CC2(CC3CCC(C2)N3C[C@H](O)c2cnc(-n3cnnn3)cn2)C(=O)N1C1=CC(=O)OC1 (single isomer, unassigned) [Example 89]	30
CC1CC2(CC3CCC(C2)N3C[C@@H](O)c2cnc(-n3cnnn3)cn2)C(=O)N1C1=CC(=O)OC1 (single isomer, unassigned) [Example 90]	40
CC1CC2(CC3CCC(C2)N3C[C@H](O)c2cnc(-n3cnnn3)cn2)C(=O)N1C1=CC(=O)OC1 (single isomer, unassigned) [Example 91]	30
CC1CC2(CC3CCC(C2)N3C[C@@H](O)c2cnc(-n3cnnn3)cn2)C(=O)N1C1=CC(=O)OC1 (single isomer, unassigned) [Example 92]	20
CC1CC2(CC3CCC(C2)N3C[C@H](O)c2ccc(-n3cnnn3)nc2)C(=O)N1C1=CC(=O)OC1 (single isomer, unassigned) [Example 100]	10
CC1CC2(CC3CCC(C2)N3C[C@@H](O)c2ccc(-n3cnnn3)nc2)C(=O)N1C1=CC(=O)OC1 (single isomer, unassigned) [Example 101]	6
CC1CC2(CC3CCC(C2)N3C[C@H](O)c2ccc(-n3cnnn3)nc2)C(=O)N1C1=CC(=O)OC1 (single isomer, unassigned) [Example 102]	10
CC1CC2(CC3CCC(C2)N3C[C@@H](O)c2ccc(-n3cnnn3)nc2)C(=O)N1C1=CC(=O)OC1 (single isomer, unassigned) [Example 103]	10
CC1=C(N2CC(O)C3(CC4CCC(C3)N4C[C@H](O)c3ccc(-n4cnnn4)nc3)C2=O)COC1=O (single isomer, unassigned) [Example 104]	120
CC1=C(N2CC(O)C3(CC4CCC(C3)N4C[C@@H](O)c3ccc(-n4cnnn4)nc3)C2=O)COC1=O (single isomer, unassigned) [Example 105]	130
CC1=C(N2CC(O)C3(CC4CCC(C3)N4C[C@H](O)c3ccc(-n4cnnn4)nc3)C2=O)COC1=O (single isomer, unassigned) [Example 106]	60
